Assays:
[1] = mRNA encapsulation by Qubit RNA HS dye fluorescence before and after Triton X-100 lysis; format: physicochemical; settings: Fluc mRNA/peptoid formulation, 5:1 mass ratio peptoid:cargo
Protocol: (§1) In standard formulations, the tertiary amino lipidated and/or PEGylated cationic peptide compound is dissolved in anhydrous ethanol at a concentration of 0.5 mg/mL (for in vitro experiments) or 5 mg/mL (for in vivo experiments). The resulting solutions are stable at room temperature, but should be stored at −20° C. The nucleic acid cargo is dissolved in DNAse or RNAse-free water at a final concentration of 0.2 mg/mL (for in vitro experiments) or 1 mg/mL (for in vivo experiments). These solutions should be stored at −20° C. or at −78° C. for longer time periods. To prepare nanoparticle formulations, the tertiary amino lipidated and/or PEGylated cationic peptide compound is mixed by pipetting with nucleic acid at a mass ratio between approximately 1:1 (peptide compound:cargo) and 20:1. Prior to formulation, tertiary amino lipidated and/or PEGylated cationic peptide compounds and cargo (such as nucleic acid) are diluted in ethanol and acidic buffer (PBS adjusted to pH 5.5 with 0.1 M HCl) respectively to a volume ratio of 1:3 and to target a final cargo concentration of approximately 0.05 mg/mL to 0.2 mg/mL. The exemplary amino lipidated cationic peptoids 1-36 described in Example 2 were combined with firefly luciferase (Flue) mRNA to form nanoparticle compositions to be evaluated for therapeutic and/or prophylactic purposes in vitro or in vivo. The formulations were prepared according to the protocol of Example 3 and mixed by simple pipetting. The mRNA/peptoid formulation at a 5:1 mass ratio of peptoid:cargo were evaluated by dynamic light scattering (DLS) in order to determine the volume average particle size/diameter (nm) of the mRNA/peptoid complex and the size polydispersity index (PDI) within the formulation. The percentage of mRNA encapsulation for each formulation of the exemplary compounds were determined by fluorescence of the Qubit RNA HS (Invitrogen) dye before and after lysis of particles by Triton X-100.

[2] = Dynamic light scattering (DLS) of Fluc mRNA/peptoid formulations: particle size and polydispersity; format: physicochemical; settings: 5:1 mass ratio peptoid:cargo; for Size (volume average particle size/diameter): Fluc mRNA/peptoid complex; for Size PDI (size polydispersity index): Fluc mRNA/peptoid formulation
Protocol: as §1

Structure (SMILES) | % Encapsulation (percentage of mRNA encapsulation) [1] | Size (volume average particle size/diameter) [2] | Size PDI (size polydispersity index) [2]
CCCCCCCCCCN(CC(=O)N(CCN)CC(=O)N(CCc1ccccc1)CC(=O)N(CCc1ccccc1)CC(=O)N(CCCCCCCCCC)CC(=O)N(CCN)CC(=O)N(CCc1ccccc1)CC(=O)N(CCc1ccccc1)CC(N)=O)C(=O)CN(CCc1ccccc1)C(=O)CN(CCc1ccccc1)C(=O)CNCCN [Compound 17] | 90.3% | 472.8 nm | 0.37
CCCCCCCCCCNCC(=O)N(CCN)CC(=O)N(CCc1ccccc1)CC(=O)N(CCc1ccccc1)CC(=O)N(CCN)CC(=O)N(CCc1ccccc1)CC(=O)N(CCc1ccccc1)CC(=O)N(CCN)CC(=O)N(CCc1ccccc1)CC(=O)N(CCc1ccccc1)CC(=O)N(CCCCCCCCCC)CC(N)=O [Compound 18] | 88.5% | 593 nm | 0.762
CCCCCCCCCCN(CC(N)=O)C(=O)CN(CCCCCCCCCC)C(=O)CN(CCCCCCCCCC)C(=O)CN(CCCCCCCCCC)C(=O)CN(CCCCCCCCCC)C(=O)CN(CCc1ccccc1)C(=O)CN(CCc1ccccc1)C(=O)CN(CCN)C(=O)CN(CCc1ccccc1)C(=O)CN(CCc1ccccc1)C(=O)CNCCN [Compound 20] | 72.2% | 326.6 nm | 0.37
CCCCCCCCCCN(CC(N)=O)C(=O)CN(CCCCCCCCCC)C(=O)CN(CCCCCCCCCC)C(=O)CN(CCCCCCCCCC)C(=O)CN(CCCCCCCCCC)C(=O)CN(CCCCCCCCCC)C(=O)CN(CCc1ccccc1)C(=O)CN(CCc1ccccc1)C(=O)CN(CCN)C(=O)CN(CCc1ccccc1)C(=O)CN(CCc1ccccc1)C(=O)CN(CCN)C(=O)CN(CCc1ccccc1)C(=O)CN(CCc1ccccc1)C(=O)CNCCN [Compound 22] | 65.4% | 748.2 nm | 0.538
CCCCCCCCCCN(CC(N)=O)C(=O)CN(CCCCCCCCCC)C(=O)CN(CCCCCCCCCC)C(=O)CN(CCCCCCCCCC)C(=O)CN(CCc1ccccc1)C(=O)CN(CCc1ccccc1)C(=O)CN(CCNC)C(=O)CN(CCc1ccccc1)C(=O)CN(CCc1ccccc1)C(=O)CN(CCNC)C(=O)CN(CCc1ccccc1)C(=O)CN(CCc1ccccc1)C(=O)CNCCNC [Compound 25] | 8.4% | 773.3 nm | 0.021
CCCCCCCCCCN(CC(N)=O)C(=O)CN(CCCCCCCCCC)C(=O)CN(CCc1ccccc1)C(=O)CN(CCc1ccccc1)C(=O)CN(CCNC)C(=O)CN(CCc1ccccc1)C(=O)CN(CCc1ccccc1)C(=O)CN(CCNC)C(=O)CN(CCc1ccccc1)C(=O)CN(CCc1ccccc1)C(=O)CNCCNC [Compound 27] | 50.9% | 438.7 nm | 0.606
CCCCCCCCCCN(CC(N)=O)C(=O)CN(CCCCCCCCCC)C(=O)CN(CCCCCCCCCC)C(=O)CN(CCCCCCCCCC)C(=O)CN(CCc1ccccc1)C(=O)CN(CCc1ccccc1)C(=O)CN(CCCN)C(=O)CN(CCc1ccccc1)C(=O)CN(CCc1ccccc1)C(=O)CN(CCCN)C(=O)CN(CCc1ccccc1)C(=O)CN(CCc1ccccc1)C(=O)CNCCCN [Compound 28] | 52.0% | 308 nm | 0.085
CCCCCCCCCCN(CC(N)=O)C(=O)CN(CCCCCCCCCC)C(=O)CN(CCc1ccccc1)C(=O)CN(CCc1ccccc1)C(=O)CN(CCCN)C(=O)CN(CCc1ccccc1)C(=O)CN(CCc1ccccc1)C(=O)CN(CCCN)C(=O)CN(CCc1ccccc1)C(=O)CN(CCc1ccccc1)C(=O)CNCCCN [Compound 30] | 8.4% | 282.8 nm | 0.455
CCCCCCCCCCN(CC(N)=O)C(=O)CN(CCCCCCCCCC)C(=O)CN(CCCCCCCCCC)C(=O)CN(CCCCCCCCCC)C(=O)CN(CCc1ccccc1)C(=O)CN(CCc1ccccc1)C(=O)CN(CC1CCNCC1)C(=O)CN(CCc1ccccc1)C(=O)CN(CCc1ccccc1)C(=O)CN(CC1CCNCC1)C(=O)CN(CCc1ccccc1)C(=O)CN(CCc1ccccc1)C(=O)CNCC1CCNCC1 [Compound 31] | 35.7% | 348.5 nm | 0.404
CCCCCCCCCCN(CC(N)=O)C(=O)CN(CCCCCCCCCC)C(=O)CN(CCCCCCCCCC)C(=O)CN(CCCCCCCCCC)C(=O)CN(CCc1ccccc1)C(=O)CN(CCc1ccccc1)C(=O)CN(CC1CCNCC1)C(=O)CN(CCc1ccccc1)C(=O)CN(CCc1ccccc1)C(=O)CN(CC1CCNCC1)C(=O)CN(CCc1ccccc1)C(=O)CN(CCc1ccccc1)C(=O)CN(CC1CCNCC1)C(=O)CN(CCc1ccccc1)C(=O)CN(CCc1ccccc1)C(=O)CNCC1CCNCC1 [Compound 32] | 50.9% | 247.5 nm | 0.274
CCCCCCCCCCN(CC(N)=O)C(=O)CN(CCCCCCCCCC)C(=O)CN(CCc1ccccc1)C(=O)CN(CCc1ccccc1)C(=O)CN(CC1CCNCC1)C(=O)CN(CCc1ccccc1)C(=O)CN(CCc1ccccc1)C(=O)CN(CC1CCNCC1)C(=O)CN(CCc1ccccc1)C(=O)CN(CCc1ccccc1)C(=O)CNCC1CCNCC1 [Compound 33] | 82.0% | 435.7 nm | 0.048
CCCCCCCCCCN(CC(N)=O)C(=O)CN(CCCCCCCCCC)C(=O)CN(CCc1ccccc1)C(=O)CN(CCc1ccccc1)C(=O)CN(CC1CCCN1)C(=O)CN(CCc1ccccc1)C(=O)CN(CCc1ccccc1)C(=O)CN(CC1CCCN1)C(=O)CN(CCc1ccccc1)C(=O)CN(CCc1ccccc1)C(=O)CNCC1CCCN1 (stereo not drawn) [Compound 36] | 71.5% | 374.4 nm | 0.127
